Laboratory results taken from patent publication US20250235460A1, “COMBINATION THERAPY USING GLUCOSE-DEPENDENT INSULINOTROPIC POLYPEPTIDE RECEPTOR ANTAGONIST COMPOUNDS AND GLP-1 RECEPTOR AGONIST COMPOUNDS” (Pfizer Inc., priority 2024, published 2025).

Target: human GLP-1R (Homo sapiens, UniProt P43220, G168S)
Assay: CHO GLP-1R Clone H6 cAMP HTRF agonist assay (Assay 1, high receptor density)
Assay type: cell-based
Conditions: for EC50: CHO GLP-1R clone H6, cAMP HTRF, geometric mean; for Emax: CHO GLP-1R clone H6, arithmetic mean, relative to saturating GLP-1 (1 μM), read-out: Assay 1 Emax (%)
Description: In Table 5 and Table 6, assay data are presented to two (2) significant figures as the geometric mean (EC50s) and arithmetic mean (Emax) based on the number of replicates listed (Number). A blank cell means there was no data for that Example or the Emax was not calculated.

human GLP-1R, sequence (P43220 24-463 G168S): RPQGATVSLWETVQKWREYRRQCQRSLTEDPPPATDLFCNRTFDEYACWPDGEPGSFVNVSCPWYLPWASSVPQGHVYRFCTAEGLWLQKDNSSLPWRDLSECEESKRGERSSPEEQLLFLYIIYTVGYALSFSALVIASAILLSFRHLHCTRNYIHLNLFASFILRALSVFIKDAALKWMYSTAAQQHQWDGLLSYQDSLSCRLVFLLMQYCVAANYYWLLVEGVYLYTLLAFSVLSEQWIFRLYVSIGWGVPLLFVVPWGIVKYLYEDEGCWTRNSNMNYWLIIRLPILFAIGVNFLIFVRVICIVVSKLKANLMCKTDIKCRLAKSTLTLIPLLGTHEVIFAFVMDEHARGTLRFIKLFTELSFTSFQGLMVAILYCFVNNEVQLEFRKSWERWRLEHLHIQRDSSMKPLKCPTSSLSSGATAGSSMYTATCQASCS

| SMILES | EC50 | Emax |
| --- | --- | --- |
| COC1(Cn2c(CN3CCC(c4cccc(OCc5ccc(Cl)cc5F)n4)CC3)nc3ccc(C(=O)O)cc32)CCC1 [Compound 177B, 2-[(4-{6-[(4-chloro-2-fluorobenzyl)oxy]pyridin-2-yl}piperidin-1-yl)methyl]-1-[(1-methoxycyclobutyl)methyl]-1H-benzimidazole-6-carboxylic acid] | 880 nM |  |
| O=C(O)c1ccc2nc(CN3CCC(c4cccc(OCc5ccc(Cl)cc5F)n4)CC3)n(C[C@H]3CCOC3)c2c1 [Compound 121B, 2-[(4-{6-[(4-chloro-2-fluorobenzyl)oxy]pyridin-2-yl}piperidin-1-yl)methyl]-1-[(3R)-tetrahydrofuran-3-ylmethyl]-1H-benzimidazole-6-carboxylic acid] | > 20000 nM |  |
| COCCn1c(CN2CCC(c3ccc(F)c(OCc4ccc(Cl)cc4F)n3)CC2)nc2ccc(C(=O)O)cc21 [Compound 178B, 2-[(4-{6-[(4-chloro-2-fluorobenzyl)oxy]-5-fluoropyridin-2-yl}piperidin-1-yl)methyl]-1-(2-methoxyethyl)-1H-benzimidazole-6-carboxylic acid] | 4500 nM | 48% |
| Cc1noc(CCn2c(CN3CCC(c4cccc(OCc5ccc(Cl)cc5F)n4)CC3)nc3ccc(C(=O)O)cc32)n1 [Compound 304B, 2-[(4-{6-[(4-chloro-2-fluorobenzyl)oxy]pyridin-2-yl}piperidin-1-yl)methyl]-1-[2-(3-methyl-1,2,4-oxadiazol-5-yl)ethyl]-1H-benzimidazole-6-carboxylic acid] | 190 nM | 74% |
| COCCn1c(CN2CCN(c3nc(OCc4ccc(Cl)cc4F)ccc3F)C[C@@H]2C)nc2ccc(C(=O)O)cc21 [Compound 180B, 2-{[(2S)-4-{6-[(4-chloro-2-fluorobenzyl)oxy]-3-fluoropyridin-2-yl}-2-methylpiperazin-1-yl]methyl}-1-(2-methoxyethyl)-1H-benzimidazole-6-carboxylic acid] | > 17000 nM | 100% |
| O=C(O)c1ccc2nc(CN3CCC(c4cccc(OCc5ccc(Cl)cc5F)n4)CC3)n([C@@H]3CCOC3)c2c1 [Compound 268B, 2-[(4-{6-[(4-chloro-2-fluorobenzyl)oxy]pyridin-2-yl}piperidin-1-yl)methyl]-1-[(3R)-tetrahydrofuran-3-yl]-1H-benzimidazole-6-carboxylic acid] | > 20000 nM |  |
| COCCn1c(CN2CCC(c3cccc(OCc4ccc(C#N)cc4)n3)CC2)nc2ccc(C(=O)O)c(F)c21 [Compound 169B, 2-[(4-{6-[(4-cyanobenzyl)oxy]pyridin-2-yl}piperidin-1-yl)methyl]-7-fluoro-1-(2-methoxyethyl)-1H-benzimidazole-6-carboxylic acid] | 1200 nM | 78% |
| COCCn1c(CN2CCN(c3cccc(OCc4ccc(Cl)cc4F)n3)C(C)(C)C2)nc2ccc(C(=O)O)cc21 [Compound 182B, 2-[(4-{6-[(4-chloro-2-fluorobenzyl)oxy]pyridin-2-yl}-3,3-dimethylpiperazin-1-yl)methyl]-1-(2-methoxyethyl)-1H-benzimidazole-6-carboxylic acid] | 1800 nM | 93% |
| Cn1cncc1Cn1c(CN2CCC(c3cccc(OCc4ccc(F)cc4F)n3)CC2)nc2ccc(C(=O)O)cc21 [Compound 186B, 2-[(4-{6-[(2,4-difluorobenzyl)oxy]pyridin-2-yl}piperidin-1-yl)methyl]-1-[(1-methyl-1H-imidazol-5-yl)methyl]-1H-benzimidazole-6-carboxylic acid] | 1700 nM | 82% |
| COCCn1c(CN2CCN(c3cccc(OCc4ccc(C#N)cc4)n3)C[C@@H]2C)nc2ccc(C(=O)O)cc21 [Compound 172B, 2-{[(2S)-4-{6-[(4-cyanobenzyl)oxy]pyridin-2-yl}-2-methylpiperazin-1-yl]methyl}-1-(2-methoxyethyl)-1H-benzimidazole-6-carboxylic acid] | 2900 nM |  |
| Cn1c(CN2CCC(c3cccc(OCc4ccc(F)cc4F)n3)CC2)nc2ccc(C(=O)O)cc21 [Compound 223B, 2-[(4-{6-[(2,4-difluorobenzyl)oxy]pyridin-2-yl}piperidin-1-yl)methyl]-1-methyl-1H-benzimidazole-6-carboxylic acid] | 170 nM | 69% |
| Cn1cnc(CCn2c(CN3CCC(c4cccc(OCc5ccc(Cl)cc5F)n4)CC3)nc3ccc(C(=O)O)cc32)c1 [Compound 276B, 2-[(4-{6-[(4-chloro-2-fluorobenzyl)oxy]pyridin-2-yl}piperidin-1-yl)methyl]-1-[2-(1-methyl-1H-imidazol-4-yl)ethyl]-1H-benzimidazole-6-carboxylic acid] | > 20000 nM |  |
| Cn1cncc1Cn1c(CN2CCC(c3cccc(OCc4ccc(C#N)cc4F)n3)CC2)nc2ccc(C(=O)O)nc21 [Compound 274B, 2-[(4-{6-[(4-cyano-2-fluorobenzyl)oxy]pyridin-2-yl}piperidin-1-yl)methyl]-3-[(1-methyl-1H-imidazol-5-yl)methyl]-3H-imidazo[4,5-b]pyridine-5-carboxylic acid] | > 20000 nM |  |
| O=C(O)c1ccc2nc(CN3CCC(c4cccc(OCc5ccc(Cl)cc5F)n4)CC3)n(Cc3cnoc3)c2c1 [Compound 270B, 2-[(4-{6-[(4-chloro-2-fluorobenzyl)oxy]pyridin-2-yl}piperidin-1-yl)methyl]-1-(1,2-oxazol-4-ylmethyl)-1H-benzimidazole-6-carboxylic acid] | > 20000 nM |  |
| O=C(O)c1ccc2nc(CN3CCC(c4cccc(OCc5ccc(F)cc5F)n4)CC3)n(C[C@@H]3CCO3)c2n1 [Compound 118B, 2-[(4-{6-[(2,4-difluorobenzyl)oxy]pyridin-2-yl}piperidin-1-yl)methyl]-3-[(2S)-oxetan-2-ylmethyl]-3H-imidazo[4,5-b] pyridine-5-carboxylic acid] | 750 nM | 76% |
| O=C(O)c1ccc2nc(CN3CCC(c4cccc(OCc5ccc(Cl)cc5F)n4)CC3)n([C@H]3CCOC3)c2c1 [Compound 272B, 2-[(4-{6-[(4-chloro-2-fluorobenzyl)oxy]pyridin-2-yl}piperidin-1-yl)methyl]-1-[(3S)-tetrahydrofuran-3-yl]-1H-benzimidazole-6-carboxylic acid] | > 20000 nM |  |
| C[C@H]1CN(c2cccc(OCc3ccc(C#N)cc3F)n2)CCN1Cc1nc2ccc(C(=O)O)cc2n1C[C@H]1CCOC1 [Compound 267B, 2-{[(2S)-4-{6-[(4-cyano-2-fluorobenzyl)oxy]pyridin-2-yl}-2-methylpiperazin-1-yl]methyl}-1-[(3R)-tetrahydrofuran-3-ylmethyl]-1H-benzimidazole-6-carboxylic acid] | > 19000 nM | 100% |

The next lines start with the values.

| EC50 | Emax | SMILES |
| --- | --- | --- |
| 560 nM | 72% | COCc1cc(Cn2c(CN3CCC(c4cccc(OCc5ccc(Cl)cc5F)n4)CC3)nc3ccc(C(=O)O)cc32)[nH]n1 [Compound 337B, 2-[(4-{6-[(4-chloro-2-fluorobenzyl)oxy]pyridin-2-yl}piperidin-1-yl)methyl]-1-{[3-(methoxymethyl)-1H-pyrazol-5-yl]methyl}-1H-benzimidazole-6-carboxylic acid] |
| 1900 nM | 79% | O=C(O)c1ccc2nc(CN3CCC(c4cccc(OCc5ccc(Cl)cc5F)n4)CC3)n(CC3CCOCC3)c2c1 [Compound 324B, 2-[(4-{6-[(4-chloro-2-fluorobenzyl)oxy]pyridin-2-yl}piperidin-1-yl)methyl]-1-(tetrahydro-2H-pyran-4-ylmethyl)-1H-benzimidazole-6-carboxylic acid] |
| 3100 nM | 51% | Cn1cnnc1CCn1c(CN2CCC(c3cccc(OCc4ccc(Cl)cc4F)n3)CC2)nc2ccc(C(=O)O)cc21 [Compound 328B, 2-[(4-{6-[(4-chloro-2-fluorobenzyl)oxy]pyridin-2-yl}piperidin-1-yl)methyl]-1-[2-(4-methyl-4H-1,2,4-triazol-3-yl)ethyl]-1H-benzimidazole-6-carboxylic acid] |
| 510 nM | 64% | O=C(O)c1ccc2nc(CN3CCC(c4cccc(OCc5ccc(Cl)cc5F)n4)CC3)n(C[C@H]3CCCO3)c2c1 [Compound 343B, 2-[(4-{6-[(4-chloro-2-fluorobenzyl)oxy]pyridin-2-yl}piperidin-1-yl)methyl]-1-[(2R)-tetrahydrofuran-2-ylmethyl]-1H-benzimidazole-6-carboxylic acid] |
| 1300 nM | 42% | Cc1nc(C(C)n2c(CN3CCC(c4cccc(OCc5ccc(Cl)cc5F)n4)CC3)nc3ccc(C(=O)O)cc32)n[nH]1 (stereo not drawn) [Compound 342B, 2-[(4-{6-[(4-chloro-2-fluorobenzyl)oxy]pyridin-2-yl}piperidin-1-yl)methyl]-1-[1-(5-methyl-1H-1,2,4-triazol-3-yl)ethyl]-1H-benzimidazole-6-carboxylic acid] |
| 500 nM | 69% | CN1CC(Cn2c(CN3CCC(c4cccc(OCc5ccc(Cl)cc5F)n4)CC3)nc3ccc(C(=O)O)cc32)CC1=O (stereo not drawn) [Compound 317B, 2-[(4-{6-[(4-chloro-2-fluorobenzyl)oxy]pyridin-2-yl}piperidin-1-yl)methyl]-1-[(1-methyl-5-oxopyrrolidin-3-yl)methyl]-1H-benzimidazole-6-carboxylic acid] |
| 290 nM | 74% | Cn1ncnc1Cn1c(CN2CCC(c3cccc(OCc4ccc(Cl)cc4F)n3)CC2)nc2ccc(C(=O)O)cc21 [Compound 308B, 2-[(4-{6-[(4-chloro-2-fluorobenzyl)oxy]pyridin-2-yl}piperidin-1-yl)methyl]-1-[(1-methyl-1H-1,2,4-triazol-5-yl)methyl]-1H-benzimidazole-6-carboxylic acid] |
| 1600 nM | 80% | O=C(O)c1ccc2nc(CN3CCC(c4cccc(OCc5ccc(Cl)cc5F)n4)CC3)n(CC3CCCCO3)c2c1 (stereo not drawn) [Compound 323B, 2-[(4-{6-[(4-chloro-2-fluorobenzyl)oxy]pyridin-2-yl}piperidin-1-yl)methyl]-1-(tetrahydro-2H-pyran-2-ylmethyl)-1H-benzimidazole-6-carboxylic acid] |
